Here are results for 4 compounds from patent US20240158378A1, “SOLID FORMS OF A 4H-PYRAN-4-ONE STRUCTURED CYP11A1 INHIBITOR” (Orion Corporation, priority 2021, published 2024).

Each structure is given as a SMILES string.

Type in all cases: physicochemical
A short description of data set [1]: Grinding with water in a ball mill, XRPD analysis. As to conditions: 25-30 mg ground with 80 μl of water, Retsch ball mill, 1.5 h, 30 Hz. How it is done:
(§1) XRPD measurements were performed with the X-ray powder diffractometer Bruker D8 Advance at room temperature using copper filled X-ray tube (40 kV×40 mA) as the X-ray source, CuKα (λ=1.5418 Å), a fixed 0.6 mm divergence slit, 0.0125 mm Ni filter and a 2.5° primary Soller slit, and a LynxEye 1-dimensional detector with a 2.5° secondary Soller slit. Data collection was done in 0.02° steps at a scan speed of 0.3°/s, in the range of 3-33° 2θ.
25-30 mg of crystalline form 3 of compound (I) was ground with 80 μl of water using a Retsch ball mill. Water addition was done in two steps, with total grinding time of 1.5 h and v=30 Hz.

The nature of data set [2]: Slurry experiment (ageing in solvents, XRPD analysis). The method, then:
as §1
Samples of 20 mg of crystalline form 5 (water content 0.3-0.6) of compound (I) were dispensed in 300 μl of various solvents defined in Table 13 at room temperature (RT) or at 40° C. under magnetic stirring (600-1000 rpm). The resulting suspensions were aged for 1 week at the respective temperatures. After the ageing period the samples were recovered, air-dried at RT and analyzed by XRPD.

A short description of data set [3]: Storage at room temperature in a closed container, re-analysis by XRPD. The conditions noted are these: two weeks. The method, then:
as §1
Crystalline form 4 of compound (I) was stored at room temperature in a closed container.

As for `CS(=O)(=O)N1CCC(COc2coc(CN3Cc4ccccc4C3)cc2=O)CC1` [crystalline form 3, 2-(isoindolin-2-ylmethyl)-5-((1-(methylsulfonyl)piperidin-4-yl)methoxy)-4H-pyran-4-one], in data set [1], the “solid form after grinding with water (XRPD)” value is recorded as “crystalline form 2”. Turning to `CS(=O)(=O)N1CCC(COc2coc(CN3Cc4ccccc4C3)cc2=O)CC1` [2-(isoindolin-2-ylmethyl)-5-((1-(methylsulfonyl)piperidin-4-yl)methoxy)-4H-pyran-4-one], the “solid form after ageing of the suspension (XRPD)” value in data set [2] (20 mg in 300 μl of the solvents of Table 13, RT or 40° C., magnetic stirring, aged for 1 week) is “crystalline form 5 (water content 0.3)”. For `CS(=O)(=O)N1CCC(COc2coc(CN3Cc4ccccc4C3)cc2=O)CC1` [form 5, 2-(isoindolin-2-ylmethyl)-5-((1-(methylsulfonyl)piperidin-4-yl)methoxy)-4H-pyran-4-one], the “solid form stability in slurry” value in data set [2] (suspensions in the solvents of Table 13, 1 week, RT or 40° C.) is listed as “stable in conditions with lower water activity”. On to `CS(=O)(=O)N1CCC(COc2coc(CN3Cc4ccccc4C3)cc2=O)CC1` [Crystalline form 4, 2-(isoindolin-2-ylmethyl)-5-((1-(methylsulfonyl)piperidin-4-yl)methoxy)-4H-pyran-4-one], for which, in data set [3], the “solid form after storage (XRPD)” value is “mixture of crystalline form 4 and crystalline form 3”.
